In PubChem BioAssay (NCI):
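48-hour exposure; five concentrations; linearly interpolated endpoints. At the TGI there is no net growth.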

Assays:
Experiment in all cases: NCI-60 cell line screen, 48 h
786-0 renal = system: 786-0 renal
A549 NSCLC = system: A549 NSCLC
CAKI-1 renal = system: CAKI-1 renal
CCRF-CEM leukemia = system: CCRF-CEM leukemia
HCT-116 colon = system: HCT-116 colon
IGROV1 ovarian = system: IGROV1 ovarian
LOX IMVI melanoma = system: LOX IMVI melanoma
MDA-MB-435 = system: MDA-MB-435
NCI-H226 lung = system: NCI-H226 lung
NCI/ADR-RES ovarian = system: NCI/ADR-RES ovarian
OVCAR-8 ovarian = system: OVCAR-8 ovarian
PC-3 prostate = system: PC-3 prostate
SK-MEL-2 melanoma = system: SK-MEL-2 melanoma
SK-MEL-28 melanoma = system: SK-MEL-28 melanoma
SNB-19 CNS = system: SNB-19 CNS
SNB-75 CNS = system: SNB-75 CNS
SR leukemia = system: SR leukemia
TK-10 renal = system: TK-10 renal
UACC-62 melanoma = system: UACC-62 melanoma
KM12 colon = system: KM12 colon

Row | SMILES | TGI (786-0 renal) [µM] | TGI (A549 NSCLC) [µM] | TGI (CAKI-1 renal) [µM] | TGI (CCRF-CEM leukemia) [µM] | TGI (HCT-116 colon) [µM] | TGI (IGROV1 ovarian) [µM] | TGI (LOX IMVI melanoma) [µM] | TGI (MDA-MB-435) [µM] | TGI (NCI-H226 lung) [µM] | TGI (NCI/ADR-RES ovarian) [µM] | TGI (OVCAR-8 ovarian) [µM] | TGI (PC-3 prostate) [µM] | TGI (SK-MEL-2 melanoma) [µM] | TGI (SK-MEL-28 melanoma) [µM] | TGI (SNB-19 CNS) [µM] | TGI (SNB-75 CNS) [µM] | TGI (SR leukemia) [µM] | TGI (TK-10 renal) [µM] | TGI (UACC-62 melanoma) [µM] | TGI (KM12 colon) [µM]
1 | CC1(C)CC(C2=NCCO2)CC(C)(C)N1 | > 100 | > 100 | > 100 | > 100 | > 100 | > 100 | > 100 | > 100 | > 100 | > 100 | > 100 | > 100 | > 100 | > 100 | > 100 | > 100 | > 100 | > 100 | > 100 | –
2 | OC1c2ccccc2CC12Cc1ccccc1C2 (stereo not drawn) | > 100 | > 100 | > 100 | > 100 | > 100 | > 100 | > 100 | > 100 | 25.1 | > 100 | > 100 | > 100 | > 100 | > 100 | > 100 | > 100 | > 100 | > 100 | – | > 100
3 | COc1ccc([C@H]2CC(=O)C[C@H](c3ccc(OC)cc3)C23C(=O)c2ccccc2C3=O)cc1 | > 100 | > 100 | > 100 | > 100 | > 100 | > 100 | > 100 | 5.95 | > 100 | 7.69 | > 100 | > 100 | 17.5 | > 100 | > 100 | 8.63 | 42.2 | > 100 | > 100 | > 100
4 | CC(=O)N1C(OC(C)C)CC(C)N1c1ccccc1 (stereo not drawn) | > 10 | > 10 | > 10 | > 10 | > 10 | > 10 | > 10 | > 10 | > 10 | > 10 | > 10 | > 10 | > 10 | > 10 | > 10 | > 10 | > 10 | > 10 | – | –
5 | CC(=O)C1(Cc2cccc3ccccc23)S(=O)(=O)OCCOS1(=O)=O | 44 | – | 30.1 | > 100 | 41 | 15.1 | 25.7 | 27.8 | 35.3 | 61.2 | 55.3 | 29.3 | – | 41.2 | 49.2 | 65.4 | 44 | 39.6 | 31.9 | 28.8
6 | O=C(O)c1n[nH][nH]c1=S | > 100 | > 100 | > 100 | > 100 | > 100 | > 100 | > 100 | > 100 | > 100 | > 100 | > 100 | > 100 | > 100 | > 100 | > 100 | > 100 | > 100 | – | > 100 | > 100
